Patent publication US20250008956A1, “COMPOSITIONS AND A METHOD OF IMPROVING PLANT HEALTH AND CONTROLLING INSECTS” (UPL LIMITED, priority 2021, published 2025)

What was measured:
Format in all cases: in vivo
rice crop [1] = assay: Number of tillers and productive tillers per hill in rice crop; conditions: for No. of tillers/hill at 45 DAA / No. of productive tillers/hill at heading: rice, GR, g a.i./ha: Flupyrimin 150, Cartap 1000, Cartap + EMA 581, Fipronil 60
rice crop [2] = assay: White ear count in rice crop; conditions: GR, g a.i./ha: Flupyrimin 150, Cartap 1000, Cartap + EMA 581, Fipronil 60
Text: (§1) Injury in plants is often first noticed when the youngest partially unfurled leaf of the plant begins to whiter and die, resulting in a condition called dead heart. Dead hearts can be caused by any stem borer. Typical bore holes will be seen on the stem. Usually, a single larva is seen inside the stem. It remains inside the stem and feeds on the internal contents. The shoot of the affected plant can be pulled off easily, a symptom known as dead heart. At maturity, the grains become chaffy, which is known as white ear and eventually the whole plant finally dies.
(§2) The phytotonic effect of flupyrimin in rice crop in terms of the dead heart count, number of ears, productive tillers/hill and the hill stability were determined.

rice crop [3] = assay: Dead heart count in rice crop; conditions: GR, g a.i./ha: Flupyrimin 150, Cartap 1000, Cartap + EMA 581, Fipronil 60; for Dead hearts (count) 7 DAA: 7 days after application; for Dead hearts (count) 14 DAA: 14 days after application; for Dead hearts (count) 21 DAA: 21 days after application; for Dead hearts (count) 28 DAA: 28 days after application; for Dead hearts (count) Pre-count: pre-count before application
Text: as §1, §2
The observations were made at 7DAA, 14 DAA, 21 DAA and 28 DAA (days after application).

wheat [4] = assay: % germination of wheat seed after seed treatment; conditions: seed treatment 500 g/L FS
Protocol: The present inventors have observed the phytotonic effect of flupyrimin in wheat by determining the % germination, plant height, root length (cm) and plant vigor The seeds were treated with 500 g/L flupyrimin flowable concentrate (FS) formulation. […]

mustard = assay: Plant height, root length and plant vigor in mustard after seed treatment; conditions: 500 g/L FS
Protocol: The present inventors have observed the phytotonic effect of flupyrimin in mustard seeds by determining the % germination, plant height, root length (cm) and plant vigor. The seeds were treated with 500 g/L flupyrimin flowable concentrate (FS) formulation. The observations were made at 30 DAS and 45 DAS (days after seeding).

rice = assay: Hill stability test (tiller sturdiness, girth) in rice; conditions: flupyrimin composition (2% GR)
Protocol: The hill stability test was performed to determine the tiller strength of the hill. Accordingly, rice was subjected to flupyrimin treatment at 23 days after transplanting (DAT) and observations were taken at 20 DAA (days after application).
Hill stability is an important plant growth feature, as it protects the crop from lodging. It becomes especially important in tall varieties and in areas prone to high winds, cyclones, heavy rains etc. Due to hill stability, the plant is able to sustain the natural forces. Hill stability is also important in case of high pest and disease pressure, which makes the plant weak and loses the tiller strength.

wheat [5] = assay: Yield and test weight in wheat after seed treatment; set-up: Test weight (1000 grain weight): unit not given here
wheat [6] = assay: Plant height, root length, tillers and plant vigor in wheat after seed treatment
Protocol: The present inventors have observed the phytotonic effect of flupyrimin in wheat by determining the % germination, plant height, root length (cm) and plant vigor The seeds were treated with 500 g/L flupyrimin flowable concentrate (FS) formulation. The observations were made at 30 DAS and 45 DAS (days after seeding).

[7] = test system: Nilaparvata lugens BPH (Brown plant hopper); assay: Brown plant hopper infestation after application; conditions: up-to 45 Days After application of composition comprising flupyrimin and/or a salt thereof
[8] = 1.2 g AI/kg of seed (2.4 ml/kg)
[9] = 2.0 g AI/kg of seed (4.0 ml/kg)

CN(C)C(CSC(N)=O)CSC(N)=O [Cartap]
No. of tillers/hill at 45 DAA (rice crop [1]): 18.07
No. of productive tillers/hill at heading (rice crop [1]): 13.77
White ear/hill at heading (rice crop [2]): 2.33
Dead hearts (count) 7 DAA (rice crop [3]): 0.21 count
Dead hearts (count) 14 DAA (rice crop [3]): 1.54 count
Dead hearts (count) 21 DAA (rice crop [3]): 3.08 count
Dead hearts (count) 28 DAA (rice crop [3]): 2.17 count
Dead hearts (count) Pre-count (rice crop [3]): 0.00 count

N#Cc1nn(-c2c(Cl)cc(C(F)(F)F)cc2Cl)c(N)c1[S+]([O-])C(F)(F)F (centres unmarked) [Fipronil]
No. of tillers/hill at 45 DAA (rice crop [1]): 19
No. of productive tillers/hill at heading (rice crop [1]): 15.63
White ear/hill at heading (rice crop [2]): 1.27
Dead hearts (count) 7 DAA (rice crop [3]): 0.00 count
Dead hearts (count) 14 DAA (rice crop [3]): 0.40 count
Dead hearts (count) 21 DAA (rice crop [3]): 2.19 count
Dead hearts (count) 28 DAA (rice crop [3]): 1.24 count
Dead hearts (count) Pre-count (rice crop [3]): 0.00 count

O=C(/N=c1\ccccn1Cc1ccc(Cl)nc1)C(F)(F)F [Flupyrimin, N-[(E)-1-(6-chloro-3-pyridinylmethyl)pyridin-2 (1H)-ylidene]-2,2,2-trifluoroacetamide]
Greater number of tillers against the market standards (average) (rice crop [1]; rice crop, granular formulation): 2-3
No. of tillers/hill at 45 DAA (rice crop [1]): 22.47
No. of productive tillers/hill at heading (rice crop [1]): 19.63
% Germination of Wheat Seed 6 DAS (wheat [4]; [8]): 92.0%
% Germination of Wheat Seed 9 DAS (wheat [4]; [8]): 93.0%
% Germination of Wheat Seed 12 DAS (wheat [4]; [8]): 95.5%
% Germination of Wheat Seed 6 DAS (wheat [4]; [9]): 92.0%
% Germination of Wheat Seed 9 DAS (wheat [4]; [9]): 93.8%
% Germination of Wheat Seed 12 DAS (wheat [4]; [9]): 96.0%
Plant Height (cm) 30 DAS (mustard; 4 g AI/kg of seed (8 ml/kg)): 21.7 cm
Plant Vigor (0-5 Index scale) 30 DAS (mustard; 4 g AI/kg of seed (8 ml/kg)): 5.0 0-5 Index scale
Root length (cm) 30 DAS (mustard; 4 g AI/kg of seed (8 ml/kg)): 18.2 cm
Plant Height (cm) 45 DAS (mustard; 4 g AI/kg of seed (8 ml/kg)): 93.2 cm
Plant Vigor (0-5 Index scale) 45 DAS (mustard; 4 g AI/kg of seed (8 ml/kg)): 5.0 0-5 Index scale
Root length (cm) 45 DAS (mustard; 4 g AI/kg of seed (8 ml/kg)): 20.8 cm
Plant Height (cm) 30 DAS (mustard; 6 g AI/kg of seed (12 ml/kg)): 22.8 cm
Plant Vigor (0-5 Index scale) 30 DAS (mustard; 6 g AI/kg of seed (12 ml/kg)): 5.0 0-5 Index scale
Root length (cm) 30 DAS (mustard; 6 g AI/kg of seed (12 ml/kg)): 18.3 cm
Plant Height (cm) 45 DAS (mustard; 6 g AI/kg of seed (12 ml/kg)): 95.6 cm
Plant Vigor (0-5 Index scale) 45 DAS (mustard; 6 g AI/kg of seed (12 ml/kg)): 5.0 0-5 Index scale
Root length (cm) 45 DAS (mustard; 6 g AI/kg of seed (12 ml/kg)): 21.1 cm
Girth of tillers compared to untreated rice (rice): almost twice the girth
Test weight (1000 grain weight) (wheat [5]; [8]): 55.3
Yield (Qt/ha) (wheat [5]; [8]): 37.4 Qt/ha
Test weight (1000 grain weight) (wheat [5]; [9]): 56.5
Yield (Qt/ha) (wheat [5]; [9]): 37.8 Qt/ha
No. of tillers/plant 30 DAS (wheat [6]; [8]): 5.8
Plant Height (cm) 30 DAS (wheat [6]; [8]): 42.4 cm
Plant Vigor (0-5 Index scale) 30 DAS (wheat [6]; [8]): 5.0 0-5 Index scale
Root length (cm) 30 DAS (wheat [6]; [8]): 11.5 cm
No. of tillers/plant 45 DAS (wheat [6]; [8]): 6.4
Plant Height (cm) 45 DAS (wheat [6]; [8]): 57.9 cm
Plant Vigor (0-5 Index scale) 45 DAS (wheat [6]; [8]): 5.0 0-5 Index scale
Root length (cm) 45 DAS (wheat [6]; [8]): 12.3 cm
No. of tillers/plant 30 DAS (wheat [6]; [9]): 5.8
Plant Height (cm) 30 DAS (wheat [6]; [9]): 43.3 cm
Plant Vigor (0-5 Index scale) 30 DAS (wheat [6]; [9]): 5.0 0-5 Index scale
Root length (cm) 30 DAS (wheat [6]; [9]): 11.8 cm
No. of tillers/plant 45 DAS (wheat [6]; [9]): 6.5
Plant Height (cm) 45 DAS (wheat [6]; [9]): 58.1 cm
Plant Vigor (0-5 Index scale) 45 DAS (wheat [6]; [9]): 5.0 0-5 Index scale
Root length (cm) 45 DAS (wheat [6]; [9]): 12.7 cm
White ear/hill at heading (rice crop [2]): 0.17
Nilaparvata lugens BPH infestation [7]: no Nilaparvata lugens BPH (Brown plant hopper) infestation is found
Dead hearts (count) 7 DAA (rice crop [3]): 0.00 count
Dead hearts (count) 14 DAA (rice crop [3]): 0.00 count
Dead hearts (count) 21 DAA (rice crop [3]): 0.04 count
Dead hearts (count) 28 DAA (rice crop [3]): 0.01 count
Dead hearts (count) Pre-count (rice crop [3]): 0.00 count
